Measurements: patent US20090036484A1, “Use of Unsaturated Quionoline or Naphtalene Derivatives as Medicaments” (AstraZeneca AB, priority 2004, published 2009)

Biological target: T1, recombinant human GR (Homo sapiens, UniProt P04150)
T1 construct: purchased Panvera/Invitrogen P2812 (kit P2893)
T1 sequence (P04150 1-777): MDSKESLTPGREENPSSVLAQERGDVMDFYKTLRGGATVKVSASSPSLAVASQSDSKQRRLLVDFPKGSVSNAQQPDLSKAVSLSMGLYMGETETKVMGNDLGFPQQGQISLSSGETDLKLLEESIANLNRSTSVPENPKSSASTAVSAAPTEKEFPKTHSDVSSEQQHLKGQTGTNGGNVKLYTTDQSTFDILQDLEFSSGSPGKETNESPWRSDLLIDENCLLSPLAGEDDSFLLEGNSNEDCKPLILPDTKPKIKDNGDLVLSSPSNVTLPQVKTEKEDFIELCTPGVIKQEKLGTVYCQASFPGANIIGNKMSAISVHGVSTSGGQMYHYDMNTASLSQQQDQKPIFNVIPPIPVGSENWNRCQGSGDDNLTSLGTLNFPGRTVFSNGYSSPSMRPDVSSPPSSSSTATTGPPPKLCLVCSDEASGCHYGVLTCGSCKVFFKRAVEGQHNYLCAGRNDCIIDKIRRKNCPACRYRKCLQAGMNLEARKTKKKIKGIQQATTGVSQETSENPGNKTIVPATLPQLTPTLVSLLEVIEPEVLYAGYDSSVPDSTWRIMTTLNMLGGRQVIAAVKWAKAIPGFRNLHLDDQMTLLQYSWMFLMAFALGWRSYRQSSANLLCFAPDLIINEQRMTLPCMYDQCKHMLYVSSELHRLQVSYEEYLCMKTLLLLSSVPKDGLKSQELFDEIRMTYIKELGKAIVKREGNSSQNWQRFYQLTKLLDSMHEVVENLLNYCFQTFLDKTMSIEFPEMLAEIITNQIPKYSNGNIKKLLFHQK
Test: Human Glucocorticoid Receptor (GR) fluorescence polarization assay
Type: binding
Conditions: GS Red tracer, 2 hours at room temperature
Protocol: Human Glucocorticoid Receptor (GR) Assay
The assay is based on a commercial kit from Panvera/Invitrogen (Part number P2893). The assay technology is fluorescence polarization. The kit utilises recombinant human GR (Panvera, Part number P2812), a Fluoromone™ labelled tracer (GS Red, Panvera, Part number P2894) and a Stabilizing Peptide 10× (Panvera, Part number P2815). The GR and Stabilizing Peptide reagents are stored at −70° C. while the GS Red is stored at −20° C. Also included in the kit are 1M DTT (Panvera, Part number P2325, stored at −20° C.) and GR Screening buffer 10× (Panvera, Part number P2814, stored at −70° C. initially but once thawed stored at room temperature). Avoid repeated freeze/thaws for all reagents. The GR Screening buffer 10× comprises 100 mM potassium phosphate, 200 mM sodium molybdate, 1 mM EDTA and 20% DMSO.
Test compounds (1 μL) and controls (1 μL) in 100% DMSO were added to black polystyrene 384-well plates (Greiner low volume black flat-bottom, part number 784076). 0% control was 100% DMSO and 100% control was 10 μM Dexamethasone. […] The plate was read in an Analyst plate reader (LJL Biosystems/Molecular Devices Corporation) or other similar plate reader capable of recording fluorescence polarization (excitation wavelength 530 nm, emission wavelength […] and a dichroic mirror at 561 nm). The IC50 values were calculated using XLfit model 205.

- IC50: 240 nM
Compound: CC1=CC(C)(C)N(Cc2ccc(Cl)cc2)c2ccccc21 [CAS120109-44-6]
